Measurements from US20120035206A1, “PREPARATION AND APPLICATION OF NOVEL ANTIBACTERIAL AND ANTICANCER COMPOUNDS AND THEIR DERIVATIVES” (priority 2009, published 2012).
In brackets after ≈: the same amount, converted by molar mass.

Tests used:
Assay type in all cases: cell-based
C. Krusei = experiment: In vitro antibacterial (antifungal) test, two-fold dilution MIC; conditions: Pichia kudriavzevii, RPMI 1640, culture 2-7 days
Description: (§1) In vitro antibacterial experiments of 25 compounds as anti-bacterial and anti-cancer compounds in the patent were tested using 14 kinds of bacteria. Tested bacteria: C. albicans, C. tropicalis, C. neoformans, E. floccosum, M. gypseum, A. niger, S. schenekn, C. parapsilosis, C. glabrata, C. Krusei, Trichoderma, Gibberella, Setrosphaeria turcica, Fusarium Oxysporum Vasinfectum. (Bacteria were from the Dermatology Hospital of Chinese Academy of Medical Sciences, Nanjing, China.)
(§2) The Preparation of tested Bacteria solution was following: incubated Bacteria were added to 5 ml physiological saline, and then they were mashed and placed with ultrasound. The solution was fully mixed, and insoluble substances were removed. The treated solution was called the original bacterium solution. In the test, the bacteria concentration in the original bacterium solution was adjusted to […].
(§3) Tested Methods: the tested compounds were dissolved in dimethyl sulfoxide. and the solution was diluted with sterile distilled water. And the distilled solution was added to sterilized RPMI 1640 medium. The concentration of the compounds were adjusted to 256, 128, 64, 32, 16, 8, 4, 2, 1, 0.5, 0.25, 0.125 ug*ml-1. Then the adjusted solutions were inoculated with tested bacteria, and the tested systems were placed in the constant temperature oven to culture for 2-7 days. The concentration at which there was no growing of fungi was taken as the minimum inhibitory concentration (MIC).

C. albicans = experiment: as above; conditions: Candida albicans, read-out: MIC C. albicas
Description: as §1, §2, §3

C. glabrata = experiment: as above; conditions: Nakaseomyces glabratus, RPMI 1640, culture 2-7 days
Description: as §1, §2, §3

C. neoformans = experiment: as above; conditions: Cryptococcus neoformans, RPMI 1640, culture 2-7 days
Description: as §1, §2, §3

C. parapsilosis = experiment: as above; conditions: Lodderomyces parapsilosis, RPMI 1640, culture 2-7 days
Description: as §1, §2, §3

C. tropicalis = experiment: as above; conditions: Candida tropicalis, RPMI 1640, culture 2-7 days
Description: as §1, §2, §3

E. floccosum = experiment: as above; conditions: Epidermophyton floccosum, RPMI 1640, culture 2-7 days
Description: as §1, §2, §3

[1] = tested on: Fusarium oxysporum vasinfectum; experiment: as above; conditions: RPMI 1640, culture 2-7 days
Description: as §1, §2, §3

M. gypseum = experiment: as above; conditions: Nannizzia gypsea, RPMI 1640, culture 2-7 days
Description: as §1, §2, §3

S. schenekn = experiment: as above; conditions: RPMI 1640, culture 2-7 days
Description: as §1, §2, §3

Setosphaeria turcica = experiment: as above; conditions: Exserohilum turcicum, RPMI 1640, culture 2-7 days
Description: as §1, §2, §3

Terchoderma = experiment: as above; conditions: Trichoderma, RPMI 1640, culture 2-7 days
Description: as §1, §2, §3

A375 = experiment: In vitro anticancer MTT experiment; conditions: Homo sapiens, A-375, concentration 5 ug/ml, 48 h or 72 h, read-out: inhibition ratio A375
Description: (§4) In vitro anticancer experiments of 25 compounds as anti-bacterial and anti-cancer compounds in the patent were tested. In the test, 14 kinds of cancer cells were used as tested cancer cells. And the results obtained by MTT method were shown in table 2 (the inhibition ratio was obtained when the concentration was 5 ug/ml). Tested Cancer Cells: SGC7901, HTB-38HT-29, CRL-2233NU-398, CRL-1469PANC-1, B0192, HTB-131MDA-453, CRL-1435PC-3, FTC133, AS24391, HTB-95637. (Cancer cells were from Chinese Military Academy of Medical Sciences). Cells Culture: Culture solution was composed of RPMI 1640 medium, 10% (VAT) Fetal calf serum and 0.01% L-glutamine. Cultured cells were maintained at 37° C. in an incubator with 5% CO2. The cells at logarithmic growth phase were used in the experiment. MTT Experiment: Single cell suspension was obtained by digesting cells with 0.25% trypsin. The cells at logarithmic growth phase were collected and seeded in a 96-well plate at a concentration of 6000-7000 cells per well. After culturing for 12 h at 37° C. in the incubator with 5% CO2, the cells were again incubated with the tested compounds of various concentrations for 48 h or 72 h. Pure cultures and cells without drug were taken as blank reference and negative reference, and 8 Wells of each group were taken. Twenty microliter of MTT (5 mg/mL) was added to each well, and the mixed solutions were incubation for 4 h. The formazan product was dissolved by dimethyl sulfoxide (DMSO, 150 μL), and the optical density (O.D.) was read at 570 nm. The Inhibition Ratio was calculated by the following formula: Inhibition Ratio=(Anegative control−Asample)/(Anegative control−Ablank control)

AS24391 = experiment: In vitro anticancer MTT experiment; conditions: concentration 5 ug/ml, 48 h or 72 h, read-out: inhibition ratio AS24391
Description: as §4

B01092 = experiment: In vitro anticancer MTT experiment; conditions: concentration 5 ug/ml, 48 h or 72 h, read-out: inhibition ratio B01092
Description: as §4

CRL-1435PC-3 = experiment: In vitro anticancer MTT experiment; conditions: concentration 5 ug/ml, 48 h or 72 h, read-out: inhibition ratio CRL-1435PC-3
Description: as §4

CRL-1469PANC-1 = experiment: In vitro anticancer MTT experiment; conditions: concentration 5 ug/ml, 48 h or 72 h, read-out: inhibition ratio CRL-1469PANC-1
Description: as §4

CRL-2233SNU-398 = experiment: In vitro anticancer MTT experiment; conditions: concentration 5 ug/ml, 48 h or 72 h, read-out: inhibition ratio CRL-2233SNU-398
Description: as §4

FTC 133 = experiment: In vitro anticancer MTT experiment; conditions: Homo sapiens, concentration 5 ug/ml, 48 h or 72 h, read-out: inhibition ratio FTC 133
Description: as §4

HTB-131MDA-MB-453 = experiment: In vitro anticancer MTT experiment; conditions: concentration 5 ug/ml, 48 h or 72 h, read-out: inhibition ratio HTB-131MDA-MB-453
Description: as §4

HTB-38HT-29 = experiment: In vitro anticancer MTT experiment; conditions: concentration 5 ug/ml, 48 h or 72 h, read-out: inhibition ratio HTB-38HT-29
Description: as §4

HTB-94 = experiment: In vitro anticancer MTT experiment; conditions: concentration 5 ug/ml, 48 h or 72 h, read-out: inhibition ratio HTB-94
Description: as §4

HTB-95637 = experiment: In vitro anticancer MTT experiment; conditions: concentration 5 ug/ml, 48 h or 72 h, read-out: inhibition ratio HTB-95637
Description: as §4

L1210 = experiment: In vitro anticancer MTT experiment; conditions: Mus musculus, concentration 5 ug/ml, 48 h or 72 h, read-out: inhibition ratio L1210
Description: as §4

L428 = experiment: In vitro anticancer MTT experiment; conditions: Homo sapiens, L-428, concentration 5 ug/ml, 48 h or 72 h, read-out: inhibition ratio L428
Description: as §4

SGC7901 = experiment: In vitro anticancer MTT experiment; conditions: Homo sapiens, SGC-7901, concentration 5 ug/ml, 48 h or 72 h, read-out: inhibition ratio SGC7901
Description: as §4

gibberella = experiment: In vitro antibacterial (antifungal) test, two-fold dilution MIC; conditions: RPMI 1640, culture 2-7 days
Description: as §1, §2, §3

SMILES	MIC (C. albicans) [µg/mL]	MIC (C. glabrata) [µg/mL]	MIC (C. neoformans) [µg/mL]	MIC (C. parapsilosis) [µg/mL]	MIC (C. tropicalis) [µg/mL]	MIC (E. floccosum) [µg/mL]	MIC [1] [µg/mL]	MIC (M. gypseum) [µg/mL]	MIC (S. schenekn) [µg/mL]	MIC (Setosphaeria turcica) [µg/mL]	MIC (Terchoderma) [µg/mL]	inhibition at 5 µg/mL (A375) [%]	inhibition at 5 µg/mL (AS24391) [%]	inhibition at 5 µg/mL (B01092) [%]	inhibition at 5 µg/mL (CRL-1435PC-3) [%]	inhibition at 5 µg/mL (CRL-1469PANC-1) [%]	inhibition at 5 µg/mL (FTC 133) [%]	inhibition at 5 µg/mL (HTB-131MDA-MB-453) [%]	inhibition at 5 µg/mL (HTB-94) [%]	inhibition at 5 µg/mL (L1210) [%]	further results
O=C1/C(=C/Cl)CSc2ccc(Cl)cc21 [Compound 4, (Z)-6-chloro-3-(chloromethylene)thiochroman-4-one]	4 (≈ 16.3 µM)	16 (≈ 65.3 µM)	4 (≈ 16.3 µM)	2 (≈ 8.16 µM)	8 (≈ 32.6 µM)	2 (≈ 8.16 µM)	32 (≈ 131 µM)	16 (≈ 65.3 µM)	4 (≈ 16.3 µM)	8 (≈ 32.6 µM)	16 (≈ 65.3 µM)	50.4	46.2	56.7	54.2	68	46.5	57.6	68	82.3	MIC (C. Krusei): 32 µg/mL (≈ 131 µM); inhibition at 5 µg/mL (CRL-2233SNU-398): 75.5%; inhibition at 5 µg/mL (HTB-38HT-29): 67.3%; inhibition at 5 µg/mL (HTB-95637): 52.8%; inhibition at 5 µg/mL (L428): 66.6%; inhibition at 5 µg/mL (SGC7901): 60.8%
Cc1ccc2c(c1)C(=O)/C(=C/Br)CS2 [Compound 8, (Z)-3-(bromomethylene)-6-methylthiochroman-4-one]	32 (≈ 119 µM)	64 (≈ 238 µM)	8 (≈ 29.7 µM)	32 (≈ 119 µM)	64 (≈ 238 µM)	64 (≈ 238 µM)	64 (≈ 238 µM)	64 (≈ 238 µM)	32 (≈ 119 µM)	64 (≈ 238 µM)	32 (≈ 119 µM)	37.9	40	39	50.6	47.9	75.6	47.3	56.7	84.6	MIC (C. Krusei): 64 µg/mL (≈ 238 µM); inhibition at 5 µg/mL (CRL-2233SNU-398): 46.4%; inhibition at 5 µg/mL (HTB-38HT-29): 54.9%; inhibition at 5 µg/mL (HTB-95637): 56.4%; inhibition at 5 µg/mL (L428): 44.2%; inhibition at 5 µg/mL (SGC7901): 60.6%
O=C1/C(=C/Cl)CSc2ncccc21 [Compound 18, (Z)-3-(chloromethylene)-2H-thiopyrano[2,3-b]pyridin-4(3H)-one]	8 (≈ 37.8 µM)	16 (≈ 75.6 µM)	4 (≈ 18.9 µM)	8 (≈ 37.8 µM)	16 (≈ 75.6 µM)	32 (≈ 151 µM)	16 (≈ 75.6 µM)	32 (≈ 151 µM)	4 (≈ 18.9 µM)	8 (≈ 37.8 µM)	16 (≈ 75.6 µM)	67.8	63.5	67.7	41	56.4	55	77.1	49	76.8	MIC (C. Krusei): 32 µg/mL (≈ 151 µM); inhibition at 5 µg/mL (CRL-2233SNU-398): 46.6%; inhibition at 5 µg/mL (HTB-38HT-29): 63.5%; inhibition at 5 µg/mL (HTB-95637): 56.4%; inhibition at 5 µg/mL (SGC7901): 47.5%
O=C1/C(=C/Cl)CSc2sccc21 [Compound 19, (Z)-5-(chloromethylene)-5,6-dihydro-4H-thieno[2,3-b]thiopyran-4-one]	8 (≈ 36.9 µM)	32 (≈ 148 µM)	16 (≈ 73.8 µM)	4 (≈ 18.5 µM)	16 (≈ 73.8 µM)	4 (≈ 18.5 µM)	16 (≈ 73.8 µM)	16 (≈ 73.8 µM)	32 (≈ 148 µM)	32 (≈ 148 µM)	4 (≈ 18.5 µM)	46.2	53	36.5	41.3	67.9	54.8	47.9	48.5	76.4	MIC (gibberella): 8 µg/mL (≈ 36.9 µM); inhibition at 5 µg/mL (L428): 47.5%; inhibition at 5 µg/mL (SGC7901): 56.4%
O=C1/C(=C\Cl)SCc2ccccc21 [Compound 26, (E)-3-(chloromethylene)isothiochroman-4-one]	2 (≈ 9.49 µM)	16 (≈ 75.9 µM)	4 (≈ 19 µM)	32 (≈ 152 µM)	8 (≈ 38 µM)	4 (≈ 19 µM)	4 (≈ 19 µM)	16 (≈ 75.9 µM)	8 (≈ 38 µM)	2 (≈ 9.49 µM)	8 (≈ 38 µM)	–	–	–	–	–	–	–	–	–	MIC (C. Krusei): 8 µg/mL (≈ 38 µM); MIC (gibberella): 16 µg/mL (≈ 75.9 µM)
Cc1ccc2c(c1)C(Cl)/C(=C/Cl)CS2 (centres unmarked) [Compound 28, (E)-4-chloro-3-(chloromethylene)-6-methylthiochroman]	32 (≈ 131 µM)	32 (≈ 131 µM)	8 (≈ 32.6 µM)	32 (≈ 131 µM)	16 (≈ 65.3 µM)	4 (≈ 16.3 µM)	64 (≈ 261 µM)	16 (≈ 65.3 µM)	16 (≈ 65.3 µM)	–	16 (≈ 65.3 µM)	52.7	72.3	46.2	65.2	75.3	72.5	56.8	62.2	79.4	inhibition at 5 µg/mL (CRL-2233SNU-398): 56.3%; inhibition at 5 µg/mL (HTB-38HT-29): 72.4%; inhibition at 5 µg/mL (HTB-95637): 48.2%; inhibition at 5 µg/mL (L428): 66.7%; inhibition at 5 µg/mL (SGC7901): 63.3%
